ChEMBL document CHEMBL1770146, “Structure-activity relationship studies of novel 3-oxazolidinedione-6-naphthyl-2-pyridinones as potent and orally bioavailable EP3 receptor antagonists” (Bioorg Med Chem Lett, 2011)
Calls of active or inactive are those of the source. The calls are words filed in the database; no cut-off is given here.

Tests used:
[1] = molecular target: T1, Prostaglandin E2 receptor EP3 subtype (Homo sapiens, UniProt P43115); experiment: Antagonist activity at human EP3 receptor expressed in CHO cells assessed as inhibition of PGE2-induced increase in intracellular calcium concentration after 1 hr by FLIPR assay; type: functional, cell-based
T1 sequence (P43115 whole entry): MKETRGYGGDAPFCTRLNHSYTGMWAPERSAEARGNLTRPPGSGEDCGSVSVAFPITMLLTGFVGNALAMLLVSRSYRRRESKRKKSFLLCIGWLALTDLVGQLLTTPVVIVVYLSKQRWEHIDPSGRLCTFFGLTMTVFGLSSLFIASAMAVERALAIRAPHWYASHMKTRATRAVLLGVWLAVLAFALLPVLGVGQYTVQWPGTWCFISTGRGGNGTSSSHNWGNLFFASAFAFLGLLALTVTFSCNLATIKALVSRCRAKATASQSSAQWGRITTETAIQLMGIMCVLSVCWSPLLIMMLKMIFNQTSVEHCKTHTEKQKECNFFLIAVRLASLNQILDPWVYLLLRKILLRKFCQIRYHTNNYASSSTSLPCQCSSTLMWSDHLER

[2] = molecular target: T2, Prostaglandin E2 receptor EP3 subtype (Rattus norvegicus) (UniProt P34980); experiment: Antagonist activity at rat EP3 receptor; type: functional
T2 sequence (whole entry): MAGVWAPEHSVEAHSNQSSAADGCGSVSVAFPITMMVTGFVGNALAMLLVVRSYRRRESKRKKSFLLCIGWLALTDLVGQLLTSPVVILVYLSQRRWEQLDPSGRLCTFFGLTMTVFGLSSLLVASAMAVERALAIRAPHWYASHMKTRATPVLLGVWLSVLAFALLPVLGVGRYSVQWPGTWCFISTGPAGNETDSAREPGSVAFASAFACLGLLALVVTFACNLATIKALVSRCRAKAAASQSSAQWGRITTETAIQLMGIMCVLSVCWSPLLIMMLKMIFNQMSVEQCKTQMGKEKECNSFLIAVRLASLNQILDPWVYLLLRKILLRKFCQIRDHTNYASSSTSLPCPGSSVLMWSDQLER

[3] = organism: Canis lupus familiaris; experiment: Antagonist activity at dog EP3 receptor; type: functional
[4] = test system: Rattus norvegicus; experiment: Dose normalized AUC in Sprague-Dawley rat at 2 mg/kg, po; type: ADME, organism-based; design: dose 2 mg/kg, route oral; details: in vivo
[5] = Clearance in Sprague-Dawley rat at 1 mg/kg, iv and 2 mg/kg, po; type: ADME, organism-based; details: in vivo
[6] = Half life in Sprague-Dawley rat at 1 mg/kg, iv and 2 mg/kg, po; type: ADME, organism-based; details: in vivo
[7] = Oral bioavailability in Sprague-Dawley rat at 2 mg/kg; type: ADME, organism-based; details: in vivo

| Ki [1] [nM] | SMILES | further results |
| --- | --- | --- |
| 7.94 | O=C1NC(=O)C(c2ccc(-c3ccc4ccccc4c3)[nH]c2=O)(C2CCCCC2)O1 (centres undefined) | – |
| 3160 | COc1cc(-c2ccc3ccccc3c2)ccc1C1(C)OC(=O)NC1=O (centres undefined) | – |
| 200 | O=C1NC(=O)C(c2ccc(-c3ccc4ccccc4c3)[nH]c2=O)(C2CCOCC2)O1 (centres undefined) | – |
| > 25100 | CC(C)C1(c2ccc(-c3ccc4ccccc4c3)nc2)OC(=O)NC1=O (centres undefined) | – |
| 7.94 | O=C1NC(=O)C(c2ccc(-c3ccc4ccccc4c3)[nH]c2=O)(C2CCCC2)O1 (centres undefined) | – |
| 31.6 | O=C1NC(=O)C(c2ccccc2)(c2ccc(-c3ccc4ccccc4c3)[nH]c2=O)O1 (centres undefined) | – |
| 20 | CC(C)[C@]1(c2ccc(-c3ccc4ccccc4c3)[nH]c2=O)OC(=O)NC1=O | – |
| 15.8 | O=C1NC(=O)C(Cc2ccccc2)(c2ccc(-c3ccc4ccccc4c3)[nH]c2=O)O1 (centres undefined) | – |
| 631 | CC(C)C1(c2cc(C(F)(F)F)c(-c3ccc4ccccc4c3)[nH]c2=O)OC(=O)NC1=O (centres undefined) | – |
| 126 | O=C1NC(=O)C(c2ccc(-c3ccc4ccccc4c3)[nH]c2=O)(C(F)(F)F)O1 (centres undefined) | – |
| – | CC(C)C1(c2ccc(-c3ccc4ccccc4c3)[nH]c2=O)OC(=O)NC1=O (centres undefined) | Activity [2]: Active; Activity [3]: Active |
| 50.1 | CC(C)C1(c2cc(Cl)c(-c3ccc4ccccc4c3)[nH]c2=O)OC(=O)NC1=O (centres undefined) | AUC [4]: 12900 ng·h/mL; clearance [5]: 1.2 mL/min/kg; half-life [6]: 5.3 h; bioavailability [7]: 86% |
| 1580 | CC(C)N1C(=O)OC(C)(c2ccc(-c3ccc4ccccc4c3)[nH]c2=O)C1=O (centres undefined) | – |
| 2510 | CC(C)C1(c2cc(-c3ccccc3)c(-c3ccc4ccccc4c3)[nH]c2=O)OC(=O)NC1=O (centres undefined) | – |
| 794 | CC(C)C1(c2c[nH]c(-c3ccc4ccccc4c3)cc2=O)OC(=O)NC1=O (centres undefined) | – |
| 316 | CC1(c2ccc(-c3ccc4ccccc4c3)[nH]c2=O)NC(=O)NC1=O (centres undefined) | – |
| 7.94 | CC(C)[C@@]1(c2ccc(-c3ccc4ccccc4c3)[nH]c2=O)OC(=O)NC1=O | – |
| > 25100 | Cn1c(-c2ccc3ccccc3c2)ccc(C2(C)OC(=O)NC2=O)c1=O (centres undefined) | – |
| 39.8 | CC1(c2ccc(-c3ccc4ccccc4c3)[nH]c2=O)CNC(=O)N1 (centres undefined) | – |
| 501 | CN1C(=O)OC(C)(c2ccc(-c3ccc4ccccc4c3)[nH]c2=O)C1=O (centres undefined) | – |
| 39.8 | CC(C)C1(c2cc(Br)c(-c3ccc4ccccc4c3)[nH]c2=O)OC(=O)NC1=O (centres undefined) | – |
| 79.4 | CC1(c2ccc(-c3ccc4ccccc4c3)[nH]c2=O)CNC(=O)O1 (centres undefined) | – |
| – | CC(C)C1(c2ccc(-c3ccc4ccccc4c3)[nH]c2=O)OC(O)=NC1=O (centres undefined) | AUC [4]: 4400 ng·h/mL; clearance [5]: 5.1 mL/min/kg; half-life [6]: 3.5 h; bioavailability [7]: 100% |
| 50.1 | O=C1NC(=O)C(c2ccc(-c3ccc4ccccc4c3)[nH]c2=O)(C2CC2)O1 (centres undefined) | – |
| 20 | CC1(c2ccc(-c3ccc4ccccc4c3)[nH]c2=O)OC(=O)NC1=O (centres undefined) | – |
| 1260 | CC1(c2ccc(-c3ccc4ccccc4c3)cc2O)OC(=O)NC1=O (centres undefined) | – |
| 6.31 | Cc1cc(C2(C(C)C)OC(=O)NC2=O)c(=O)[nH]c1-c1ccc2ccccc2c1 (centres undefined) | AUC [4]: 13500 ng·h/mL; clearance [5]: 1.4 mL/min/kg; half-life [6]: 6.6 h; bioavailability [7]: 100% |
